Experimental data from US20260297081A1, “COMPOUNDS AND METHODS OF TREATING CANCERS” (Cullgen Inc., priority 2023, published 2026).

Columns and labels:
Format in all cases: cell-based
MCF7 cells = experiment: Anti-proliferation (viability) of MCF7 cells (Table 7, FIG. 2B); conditions: Homo sapiens, MCF7, MCF7 cells, 3-6 days, 10-point serial dilution; read-out: GI IC50 in MCF-7
CDK4 [1] = molecular target: T1, CDK4 (Homo sapiens, UniProt P11802+Q16531); experiment: HiBiT detection of HiBiT-tagged CDK4 protein level in MCF7 cells, 16 hours (Table 8); parameters: expressed in transfected cells; host or cells: MCF7; conditions: MCF7 cells stably expressing HiBiT tagged target proteins; for activity at 0.01 µM: 10 nM, read-out: % CDK4 Relative Level (10 nM); for activity at 0.1 µM: 100 nM, read-out: % CDK4 Relative Level (100 nM)
Method: HiBiT detection system quantitatively measures total amounts of HiBiT-tagged proteins using a luminescent based method. MCF7 cells stably expressing HiBiT tagged target proteins were treated with heterobifunctional compounds at indicated concentrations for 16 hours, then lysed with Nano-Glo HiBiT Lytic detection reagents.
Target sequence in this assay (P11802 whole entry): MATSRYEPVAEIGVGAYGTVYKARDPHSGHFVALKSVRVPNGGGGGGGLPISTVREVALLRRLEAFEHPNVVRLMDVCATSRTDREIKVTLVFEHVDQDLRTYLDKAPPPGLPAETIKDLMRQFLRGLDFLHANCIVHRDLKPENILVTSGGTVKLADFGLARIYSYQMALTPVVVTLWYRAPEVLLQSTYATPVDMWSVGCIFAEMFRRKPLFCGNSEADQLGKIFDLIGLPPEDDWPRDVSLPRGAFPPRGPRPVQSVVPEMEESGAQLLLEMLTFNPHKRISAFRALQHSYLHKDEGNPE
Target sequence in this assay (P24385 whole entry partner): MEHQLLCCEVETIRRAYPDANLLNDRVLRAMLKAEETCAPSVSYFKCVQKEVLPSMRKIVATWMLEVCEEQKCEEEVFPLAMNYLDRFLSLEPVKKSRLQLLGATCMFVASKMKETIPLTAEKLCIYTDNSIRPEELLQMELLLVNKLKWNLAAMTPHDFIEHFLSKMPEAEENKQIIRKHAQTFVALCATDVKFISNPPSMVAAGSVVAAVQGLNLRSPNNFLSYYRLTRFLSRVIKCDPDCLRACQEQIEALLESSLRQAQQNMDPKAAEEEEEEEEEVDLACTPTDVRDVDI
Target sequence in this assay (Q16531 2-1140 limits assumed): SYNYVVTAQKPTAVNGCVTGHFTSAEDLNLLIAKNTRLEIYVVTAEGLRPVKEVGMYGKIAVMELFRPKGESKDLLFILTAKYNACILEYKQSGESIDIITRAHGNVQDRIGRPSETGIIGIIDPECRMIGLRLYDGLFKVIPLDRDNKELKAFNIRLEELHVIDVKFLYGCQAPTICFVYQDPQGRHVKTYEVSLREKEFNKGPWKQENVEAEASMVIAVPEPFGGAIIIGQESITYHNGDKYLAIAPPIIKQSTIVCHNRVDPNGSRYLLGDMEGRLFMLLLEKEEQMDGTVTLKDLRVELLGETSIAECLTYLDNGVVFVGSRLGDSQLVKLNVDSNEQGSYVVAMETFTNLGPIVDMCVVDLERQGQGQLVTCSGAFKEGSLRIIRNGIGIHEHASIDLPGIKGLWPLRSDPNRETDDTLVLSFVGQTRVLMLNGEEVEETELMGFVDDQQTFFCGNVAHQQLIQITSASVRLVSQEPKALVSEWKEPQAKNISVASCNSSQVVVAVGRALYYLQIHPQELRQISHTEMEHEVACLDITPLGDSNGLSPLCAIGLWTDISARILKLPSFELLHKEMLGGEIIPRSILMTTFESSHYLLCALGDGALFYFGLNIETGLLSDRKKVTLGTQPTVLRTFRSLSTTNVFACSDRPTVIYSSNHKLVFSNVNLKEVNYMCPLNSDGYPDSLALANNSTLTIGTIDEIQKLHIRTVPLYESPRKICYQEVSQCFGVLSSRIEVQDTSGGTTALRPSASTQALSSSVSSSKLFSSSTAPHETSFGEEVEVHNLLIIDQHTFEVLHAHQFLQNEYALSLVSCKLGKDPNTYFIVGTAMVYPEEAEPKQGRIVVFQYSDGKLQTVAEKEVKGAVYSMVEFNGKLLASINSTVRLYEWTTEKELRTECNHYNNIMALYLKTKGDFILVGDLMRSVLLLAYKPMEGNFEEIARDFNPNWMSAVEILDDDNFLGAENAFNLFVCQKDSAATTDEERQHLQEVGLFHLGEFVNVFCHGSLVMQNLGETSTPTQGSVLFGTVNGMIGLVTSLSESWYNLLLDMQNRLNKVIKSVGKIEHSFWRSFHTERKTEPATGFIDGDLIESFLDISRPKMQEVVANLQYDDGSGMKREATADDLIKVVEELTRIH

CDK4 [2] = molecular target: T1, CDK4; experiment: CDK4 percentage degradation in Calu-1 cells (Table 6); parameters: Cells that express cyclin D1-3 and CDK4/6 proteins were treated with heterobifunctional compounds; endogenous in cells; host or cells: Calu-1; conditions: 16 hours; for inhibition at 0.04 µM: 40 nM; for inhibition at 0.2 µM: 200 nM
Summary of the method: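 Percentage degradation of Cyclin D1 and CDK4 derived from densitometry of ECL Western blots on lysates of Calu-1 cells. Treatment was 16 h with compound at either 40 nM or 200 nM.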
Target sequence in this assay (P11802 2-303 limits assumed): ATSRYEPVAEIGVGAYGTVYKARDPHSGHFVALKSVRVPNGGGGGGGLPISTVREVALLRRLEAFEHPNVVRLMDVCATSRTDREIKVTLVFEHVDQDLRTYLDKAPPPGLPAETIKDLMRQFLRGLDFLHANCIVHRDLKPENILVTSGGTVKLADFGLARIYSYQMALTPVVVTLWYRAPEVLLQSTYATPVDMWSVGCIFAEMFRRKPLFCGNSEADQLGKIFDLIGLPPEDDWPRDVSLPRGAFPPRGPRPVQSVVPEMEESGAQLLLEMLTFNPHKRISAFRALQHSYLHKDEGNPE
Target sequence in this assay (P24385 whole entry partner): as the sequence (P24385 whole entry partner) above
Target sequence in this assay (Q16531 2-1140 limits assumed): as the sequence (Q16531 2-1140 limits assumed) above

Calu-1 cells = experiment: Anti-proliferation (viability) of NSCLC Calu-1 cells, 3 days (Table 7, FIG. 2B); conditions: Homo sapiens, 72 h; Calu-1 cells, 3 days, 10-point serial dilution; read-out: GI IC50 in Calu-1
Method: To evaluate anti-proliferation activities of heterobifunctional compounds, NSCLC Calu-1 or ER+ breast cancer T47D cells were treated with selected heterobifunctional compounds following a 10-point serial dilution for 3 or 6 days, respectively.
To verify that heterobifunctional compound-mediated degradation is dependent on the binding to CDK4-cyclin D complex, a negative control compound, CPD-143, which is derived from active heterobifunctional compound CPD-10 was designed. CPD-143 bears the same DDB1 ligand and linker as CPD-10 but with a modified warhead to impair the binding of the control compound to CDK4.

Compound	IC50 (MCF7 cells)	activity at 0.01 µM (CDK4 [1])	activity at 0.1 µM (CDK4 [1])	inhibition at 0.04 µM (CDK4 [2])	inhibition at 0.2 µM (CDK4 [2])	IC50 (Calu-1 cells)
CC(=O)c1c(C)c2cnc(Nc3ccc(N4CCN(CC5(C(=O)N6CC7(CC(Nc8nc(NC(C)C)ccc8C(=O)Nc8ccc(N(C)C)nn8)C7)C6)CC5)CC4)cn3)nc2n(C2CCCC2)c1=O [CPD-306, 2-((2-(1-((4-(6-((6-acetyl-8-cyclopentyl-5-methyl-7-oxo-7,8-dihydropyrido[2,3-d]pyrimidin-2-yl)amino)pyridin-3-yl)piperazin-1-yl)methyl)cyclopropane-1-carbonyl)-2-azaspiro[3.3]heptan-6-yl)amino)-N-(6-(dimethylamino)pyridazin-3-yl)-6-(isopropylamino)nicotinamide]	< 50 nM	55 to 85%	55 to 85%	30 to 50%	30 to 50%	–
CC(=O)c1c(C)c2cnc(Nc3ccc(N4CCN(C(C)CC(=O)N5CC6(CC(Nc7nc(NC(C)C)ccc7C(=O)Nc7cn(C)c(C8CC8)n7)C6)C5)CC4)cn3)nc2n(C2CCCC2)c1=O (centres unmarked) [CPD-338, 2-((2-(3-(4-(6-((6-acetyl-8-cyclopentyl-5-methyl-7-oxo-7,8-dihydropyrido[2,3-d]pyrimidin-2-yl)amino)pyridin-3-yl)piperazin-1-yl)butanoyl)-2-azaspiro[3.3]heptan-6-yl)amino)-N-(2-cyclopropyl-1-methyl-1H-imidazol-4-yl)-6-(isopropylamino)nicotinamide]	< 50 nM	55 to 85%	55 to 85%	30 to 50%	30 to 50%	–
CC(=O)c1c(C)c2cnc(Nc3ccc(N4CCC(N(C)CC(=O)N5CCC(Nc6nc(NC(C)C)ccc6C(=O)Nc6ccc(N(C)C)nn6)CC5)CC4)cn3)nc2n(C2CCCC2)c1=O [CPD-360, 2-((1-(N-(1-(6-((6-acetyl-8-cyclopentyl-5-methyl-7-oxo-7,8-dihydropyrido[2,3-d]pyrimidin-2-yl)amino)pyridin-3-yl)piperidin-4-yl)-N-methylglycyl)piperidin-4-yl)amino)-N-(6-(dimethylamino)pyridazin-3-yl)-6-(isopropylamino)nicotinamide]	< 50 nM	55 to 85%	55 to 85%	< 30%	< 30%	–
[2H]C([2H])([2H])Nc1ccc(C(=O)Nc2ccc(N(C)C)nn2)c(NC2CC3(C2)CN(C(=O)CN2CCC4(CCN(c5ccc(Nc6ncc7c(C)c(C(C)=O)c(=O)n(C8CCCC8)c7n6)nc5)C4)C2)C3)n1 (centres unmarked) [CPD-384, 2-((2-(2-(7-(6-((6-acetyl-8-cyclopentyl-5-methyl-7-oxo-7,8-dihydropyrido[2,3-d]pyrimidin-2-yl)amino)pyridin-3-yl)-2,7-diazaspiro[4.4]nonan-2-yl)acetyl)-2-azaspiro[3.3]heptan-6-yl)amino)-N-(6-(dimethylamino)pyridazin-3-yl)-6-((methyl-d3)amino)nicotinamide]	< 50 nM	55 to 85%	55 to 85%	< 30%	< 30%	–
CC(=O)c1c(C)c2cnc(Nc3ccc(CN4CCN(CC(=O)NCC56CC(Nc7nc(NC(C)C)ccc7C(=O)Nc7ccc(N(C)C)nn7)(C5)C6)CC4)cn3)nc2n(C2CCCC2)c1=O [CPD-479, 2-((3-((2-(4-((6-((6-acetyl-8-cyclopentyl-5-methyl-7-oxo-7,8-dihydropyrido[2,3-d]pyrimidin-2-yl)amino)pyridin-3-yl)methyl)piperazin-1-yl)acetamido)methyl)bicyclo[1.1.1]pentan-1-yl)amino)-N-(6-(dimethylamino)pyridazin-3-yl)-6-(isopropylamino)nicotinamide]	–	–	–	–	–	≤ 10 nM
[2H]C([2H])([2H])Nc1ccc(C(=O)Nc2cn(C)c(C3CC3)n2)c(N[C@H]2CC[C@H](C(=O)N3CCC(N4CCN(c5ccc(Nc6ncc7c(C)c(C(C)=O)c(=O)n(C8CCCC8)c7n6)nc5)CC4)C3)CC2)n1 (some centres unmarked) [CPD-480, 2-((4-(3-(4-(6-((6-acetyl-8-cyclopentyl-5-methyl-7-oxo-7,8-dihydropyrido[2,3-d]pyrimidin-2-yl)amino)pyridin-3-yl)piperazin-1-yl)pyrrolidine-1-carbonyl)cyclohexyl)amino)-N-(2-cyclopropyl-1-methyl-1H-imidazol-4-yl)-6-((methyl-d3)amino)nicotinamide]	–	–	–	–	–	10 to 50 nM
CC(=O)c1c(C)c2cnc(Nc3ccc(N4CCN(C5CCN(C(=O)NC6CCC(Nc7nc(NC(C)C)ccc7C(=O)Nc7ccc(N(C)C)nn7)CC6)C5)CC4)cn3)nc2n(C2CCCC2)c1=O (centres unmarked) [CPD-483, 2-((4-(3-(4-(6-((6-acetyl-8-cyclopentyl-5-methyl-7-oxo-7,8-dihydropyrido[2,3-d]pyrimidin-2-yl)amino)pyridin-3-yl)piperazin-1-yl)pyrrolidine-1-carboxamido)cyclohexyl)amino)-N-(6-(dimethylamino)pyridazin-3-yl)-6-(isopropylamino)nicotinamide]	–	–	–	–	–	≥ 50 nM
CC(=O)c1c(C)c2cnc(Nc3ccc(N4CC5(CC(N(C)CC(=O)N6CCC(Nc7nc(NC(C)C)ccc7C(=O)Nc7ccc(N(C)C)nn7)CC6)C5)C4)cn3)nc2n(C2CCCC2)c1=O [CPD-484, 2-((1-(N-(2-(6-((6-acetyl-8-cyclopentyl-5-methyl-7-oxo-7,8-dihydropyrido[2,3-d]pyrimidin-2-yl)amino)pyridin-3-yl)-2-azaspiro[3.3]heptan-6-yl)-N-methylglycyl)piperidin-4-yl)amino)-N-(6-(dimethylamino)pyridazin-3-yl)-6-(isopropylamino)nicotinamide]	–	–	–	–	–	10 to 50 nM
CC(=O)c1c(C)c2cnc(Nc3ccc(N4CCC5(CCN(CC(=O)NCC67CC(Nc8nc(NC(C)C)ccc8C(=O)Nc8ccc(N(C)C)nn8)(C6)C7)C5)C4)cn3)nc2n(C2CCCC2)c1=O (centres unmarked) [CPD-485, 2-((3-((2-(7-(6-((6-acetyl-8-cyclopentyl-5-methyl-7-oxo-7,8-dihydropyrido[2,3-d]pyrimidin-2-yl)amino)pyridin-3-yl)-2,7-diazaspiro[4.4]nonan-2-yl)acetamido)methyl)bicyclo[1.1.1]pentan-1-yl)amino)-N-(6-(dimethylamino)pyridazin-3-yl)-6-(isopropylamino)nicotinamide]	–	–	–	–	–	≤ 10 nM
[2H]C([2H])([2H])Nc1ccc(C(=O)Nc2ccc(N(C)C)nn2)c(NC2CC3(C2)CN(C(=O)CN2CC4(C2)CN(c2ccc(Nc5ncc6c(C)c(C(C)=O)c(=O)n(C7CCCC7)c6n5)nc2)C4)C3)n1 [CPD-489, 2-((2-(2-(6-(6-((6-acetyl-8-cyclopentyl-5-methyl-7-oxo-7,8-dihydropyrido[2,3-d]pyrimidin-2-yl)amino)pyridin-3-yl)-2,6-diazaspiro[3.3]heptan-2-yl)acetyl)-2-azaspiro[3.3]heptan-6-yl)amino)-N-(6-(dimethylamino)pyridazin-3-yl)-6-((methyl-d3)amino)nicotinamide]	–	–	–	–	–	≥ 50 nM
[2H]C([2H])([2H])Nc1ccc(C(=O)Nc2ccc(N(C)C)nn2)c(NC2CCN(C(=O)CN3CC4(C3)CN(c3ccc(Nc5ncc6c(C)c(C(C)=O)c(=O)n(C7CCCC7)c6n5)nc3)C4)CC2)n1 [CPD-490, 2-((1-(2-(6-(6-((6-acetyl-8-cyclopentyl-5-methyl-7-oxo-7,8-dihydropyrido[2,3-d]pyrimidin-2-yl)amino)pyridin-3-yl)-2,6-diazaspiro[3.3]heptan-2-yl)acetyl)piperidin-4-yl)amino)-N-(6-(dimethylamino)pyridazin-3-yl)-6-((methyl-d3)amino)nicotinamide]	–	–	–	–	–	≥ 50 nM
CC(=O)c1c(C)c2cnc(Nc3ccc(CN4CCN(CC(=O)NCC5CC(Nc6nc(NC(C)C)ccc6C(=O)Nc6ccc(N(C)C)nn6)C5)CC4)cn3)nc2n(C2CCCC2)c1=O (centres unmarked) [CPD-493, 2-((3-((2-(4-((6-((6-acetyl-8-cyclopentyl-5-methyl-7-oxo-7,8-dihydropyrido[2,3-d]pyrimidin-2-yl)amino)pyridin-3-yl)methyl)piperazin-1-yl)acetamido)methyl)cyclobutyl)amino)-N-(6-(dimethylamino)pyridazin-3-yl)-6-(isopropylamino)nicotinamide]	–	–	–	–	–	≤ 10 nM
[2H]C([2H])([2H])Nc1ccc(C(=O)Nc2ccc(N(C)C)nn2)c(NC2CC(NC(=O)N3CCC(N4CCN(c5ccc(Nc6ncc7c(C)c(C(C)=O)c(=O)n(C8CCCC8)c7n6)nc5)CC4)C3)C2)n1 (centres unmarked) [CPD-494, 2-((3-(3-(4-(6-((6-acetyl-8-cyclopentyl-5-methyl-7-oxo-7,8-dihydropyrido[2,3-d]pyrimidin-2-yl)amino)pyridin-3-yl)piperazin-1-yl)pyrrolidine-1-carboxamido)cyclobutyl)amino)-N-(6-(dimethylamino)pyridazin-3-yl)-6-((methyl-d3)amino)nicotinamide]	–	–	–	–	–	≥ 50 nM
